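Each compound was tested at five concentrations against cells in 96-well plates for 48 hours. Here, GI50 denotes the concentration required for 50% inhibition of growth.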 Calls of active or inactive are those of the source. Rule as the data show it: active = GI50 up to about 1.1 µM and inactive = higher.
Assays:
Experiment in all cases: DTP human tumour cell line panel, 48 h
NCI-H226 = system: NCI-H226
HOP-92 = system: HOP-92
NCI-H23 = system: NCI-H23
Malme-3M = system: Malme-3M
SW-620 = system: SW-620
OVCAR-5 = system: OVCAR-5
Hs-578T = system: Hs-578T
DLD-1 = system: DLD-1
OVCAR-4 = system: OVCAR-4
SK-OV-3 = system: SK-OV-3
OVCAR-8 = system: OVCAR-8
LOX IMVI = system: LOX IMVI
COLO 205 = system: COLO 205
IGROV-1 = system: IGROV-1
NCI/ADR-RES = system: NCI/ADR-RES
SK-MEL-5 = system: SK-MEL-5
UACC-62 = system: UACC-62
BT-549 = system: BT-549
RXF 393 = system: RXF 393
A498 = system: A498

SMILES: O=C1C(CN2CCOCC2)CCCC1CN1CCOCC1 (stereo not given)
- GI50 (NCI-H226): 20.6 µM (inactive)
- GI50 (HOP-92): 0.92 µM (active)
- GI50 (NCI-H23): 6 µM (inactive)
- GI50 (Malme-3M): 0.724 µM (active)
- GI50 (SW-620): 0.436 µM (active)
- GI50 (OVCAR-5): 18.6 µM (inactive)
- GI50 (Hs-578T): 23 µM (inactive)
- GI50 (DLD-1): 0.67 µM (active)
- GI50 (OVCAR-4): 2.18 µM (inactive)
- GI50 (SK-OV-3): 32.1 µM (inactive)
- GI50 (OVCAR-8): 3.41 µM (inactive)
- GI50 (LOX IMVI): 3.28 µM (inactive)
- GI50 (COLO 205): 3.1 µM (inactive)
- GI50 (IGROV-1): 8.79 µM (inactive)
- GI50 (NCI/ADR-RES): 2.18 µM (inactive)
- GI50 (SK-MEL-5): 11.1 µM (inactive)
- GI50 (UACC-62): 7.85 µM (inactive)
- GI50 (BT-549): 1.96 µM (inactive)
- GI50 (RXF 393): 1.75 µM (inactive)
- GI50 (A498): 23 µM (inactive)

— ChEMBL document CHEMBL1201862, “PubChem BioAssay data set” (2004)
